Experimental data published in patent publication US20250302848A1, “DRUG-IN-CAPSULE FORMULATIONS OF THROMBOXANE RECEPTOR ANTAGONISTS” (ATXA Therapeutics, Ltd, priority 2024, published 2025).
pIC50: −log10 of the molar value.

Test system: human platelets
Assay: inhibition of aggregation of human platelets ex vivo
Assay type: cell-based
Conditions: Platelet, read-out: IC50, inhibit aggregation of human platelets ex vivo

SMILES | pIC50
CC(C)(C)NC(=O)NS(=O)(=O)c1cc(C#N)ccc1Oc1cccc(-c2ccc(OC(F)(F)F)cc2)c1 [NTP43] | 8.00 to 9.00
COc1ccc(-c2cccc(Oc3ccc([N+](=O)[O-])cc3S(=O)(=O)NC(=O)NC(C)(C)C)c2)cc1 [TP20] | 8.00 to 9.00
